Reference: ChEMBL document CHEMBL1201862, “PubChem BioAssay data set” (2004)
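In this assay, cells in 96-well plates receive the compound at five concentrations for 48 hours. Endpoints are linearly interpolated between the surrounding concentrations. GI50 = concentration required for 50% inhibition of growth.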 Activity calls are given as the source filed them. No stated cut-off is given here; in the data, active = GI50 up to about 1.1 µM and inactive = higher.

Legend:
Assay in all cases: growth of human tumour cells (NCI), 48 h
[1] = system: HCT-15
[2] = system: SK-MEL-5
[3] = system: OVCAR-3
[4] = system: OVCAR-4
[5] = system: HCT-116
[6] = system: NCI-H23
[7] = system: IGROV-1
[8] = system: KM12
[9] = system: 786-0
[10] = system: DU-145
[11] = system: COLO 205
[12] = system: SNB-19
[13] = system: LOX IMVI
[14] = system: SR
[15] = system: HOP-92
[16] = system: MDA-MB-231
[17] = system: MCF7
[18] = system: CCRF-CEM
[19] = system: TK-10
[20] = system: UO-31
[21] = system: SF-539
[22] = system: OVCAR-8
[23] = system: A498
[24] = system: Malme-3M
[25] = system: M14
[26] = system: MDA-MB-435
[27] = system: PC-3
[28] = system: EKVX
[29] = system: SK-MEL-28
[30] = system: BT-549
[31] = system: RPMI-8226
[32] = system: K562
[33] = system: HT-29
[34] = system: UACC-257
[35] = system: CAKI-1
[36] = system: UACC-62
[37] = system: SF-268
[38] = system: U-251
[39] = system: NCI/ADR-RES
[40] = system: NCI-H522
[41] = system: ACHN
[42] = system: HCC 2998
[43] = system: SNB-75
[44] = system: SK-MEL-2
[45] = system: SW-620
[46] = system: NCI-H226
[47] = system: SK-OV-3
[48] = system: Hs-578T
[49] = system: MOLT-4
[50] = system: A549
[51] = system: HL-60
[52] = system: MDA-N
[53] = system: OVCAR-5
[54] = system: NCI-H460
[55] = system: SF-295
[56] = system: SN12C
[57] = system: HOP-62
[58] = system: RXF 393

Measured: GI50

COc1cc(OCc2ccccc2)c2c(CCC(=O)O)cc(=O)oc2c1.COc1cc(OCc2ccccc2)cc2oc(=O)cc(CCC(=O)O)c12
inactive: [2] 70600 nM | [3] 31000 nM | [4] 47600 nM | [5] 54000 nM | [6] 33900 nM | [7] 51200 nM | [8] 43800 nM | [9] 92500 nM | [10] 64600 nM | [11] 67300 nM | [12] 92300 nM | [13] 20900 nM | [14] 38900 nM | [15] 32000 nM | [16] 29100 nM | [17] 2590 nM | [18] 36700 nM | [19] 31600 nM | [20] 43400 nM | [21] 71600 nM | [22] 37000 nM | [23] 14700 nM | [24] > 100000 nM | [25] 92500 nM | [26] 61700 nM | [27] 56800 nM | [28] 36800 nM | [29] 42300 nM | [30] 57500 nM | [31] 57300 nM | [32] 49000 nM | [33] 36700 nM | [34] > 100000 nM | [35] 28600 nM | [36] 63200 nM | [37] 61000 nM | [38] 55000 nM | [39] 52700 nM | [40] 42500 nM | [41] 37500 nM | [42] 56500 nM | [43] 60100 nM | [44] 30100 nM | [45] > 100000 nM | [46] 87300 nM | [47] 82400 nM | [48] 50600 nM | [49] 28100 nM | [50] 43300 nM | [51] 34100 nM | [52] > 100000 nM | [53] > 100000 nM
27000 nM: [1]

COc1ccc2c(c1)c(=Cc1ccc(N(C)C)cc1)c1cc(-c3ccccc3)[n+](C)n12
1650 nM: [1]
active: [2] 304 nM | [3] 230 nM | [54] 245 nM | [5] 314 nM | [6] 59.2 nM | [7] 144 nM | [8] 448 nM | [9] 423 nM | [10] 479 nM | [11] 24.6 nM | [12] 282 nM | [13] 374 nM | [14] 337 nM | [15] 187 nM | [16] 274 nM | [17] 327 nM | [18] 269 nM | [19] 461 nM | [20] 596 nM | [22] 154 nM | [24] 343 nM | [25] 312 nM | [26] 369 nM | [27] 322 nM | [28] 255 nM | [29] 634 nM | [30] 18.2 nM | [31] 182 nM | [32] 214 nM | [55] 264 nM | [33] 171 nM | [34] 359 nM | [56] 345 nM | [36] 698 nM | [37] 226 nM | [38] 301 nM | [40] 72.8 nM | [42] 324 nM | [43] 2.69 nM | [44] 452 nM | [45] 377 nM | [46] 150 nM | [47] 447 nM | [48] 124 nM | [49] 305 nM | [50] 643 nM | [58] 410 nM | [51] 284 nM | [52] 378 nM | [53] 875 nM
inactive: [4] 1280 nM | [23] 1330 nM | [35] 1490 nM | [39] 3660 nM | [41] 1140 nM | [57] 1360 nM
